Values of other authors in US20060204588A1, “Formulations of a nanoparticulate finasteride, dutasteride or tamsulosin hydrochloride, and mixtures thereof” (Elan Pharma International Limited, priority 2005, published 2006).

Row | Solubility in ethanol (in words) (ethanol) | Solubility in ether (ether) | Solubility in glacial acetic acid (glacial acetic acid) | Solubility in methanol (in words) (methanol) | Solubility in water | Solubility in alcohol (alcohol) | Solubility in chloroform (chloroform) | Solubility in lower alcohol solvents (lower alcohol solvents) | Compound
1 | slightly soluble | practically insoluble | slightly soluble | sparingly soluble | sparingly soluble |  |  |  | CCOc1ccccc1OCCNC(C)Cc1ccc(OC)c(S(N)(=O)=O)c1.Cl (single isomer, unassigned; (-)) [Tamsulosin hydrochloride]
2 |  |  |  |  | insoluble |  |  |  | C[C@]12C=CC(=O)N[C@@H]1CC[C@@H]1[C@@H]2CC[C@]2(C)[C@@H](C(=O)Nc3cc(C(F)(F)F)ccc3C(F)(F)F)CC[C@@H]12 [Dutasteride, (5α, 17β)-(2,5 bis-(trifluoromethyl)phenyl)-3-oxo-4-azaandrost-1-ene-17-carboxamide]
3 |  |  |  |  | practically insoluble | soluble | freely soluble | freely soluble | CC(C)(C)NC(=O)[C@H]1CC[C@H]2[C@@H]3CC[C@H]4NC(=O)C=C[C@]4(C)[C@H]3CC[C@]12C [Finasteride, (5alpha,17beta)-N-(1,1-dimethylethyl)-3-oxo-4-azaandrost-1-ene-17-carboxamide]
